In patent US9549553B2, “Active compound combinations having insecticidal properties” (BAYER CROPSCIENCE AKTIENGESELLSCHAFT, priority 2013, dated 2017):

What was measured:
Format in all cases: in vivo
[1] = tested on: two spotted spidermite (Tetranychus urticae); test: Tetranychus urticae - spray test, OP-resistant (French beans); conditions: mortality, 1 g ai/ha
Procedure: (§1) To produce a suitable preparation of active compound, 1 part by weight of active compound is mixed with the stated amount of solvent and emulsifier, and the concentrate is diluted with emulsifier-containing water to the desired concentration. To produce a suitable preparation of a spore suspension the spores are diluted with emulsifier-containing water to the desired concentration.
French beans (Phaseolus vulgaris) which are heavily infested with all stages of the two spotted spidermite (Tetranychus urticae), are sprayed with a preparation of the active ingredient of the desired concentration.
After the specified period of time, mortality in % is determined. 100% means all spider mites have been killed and 0% means none of the spider mites have been killed. The mortality values determined thus are recalculated using the Colby-formula (see sheet 1).

[2] = tested on: larvae of the diamondback moth (Plutella xylostella); test: Plutella xylostella - spray test (cabbage leaves); conditions: mortality
Procedure: To produce a suitable preparation of active compound, 1 part by weight of active compound is mixed with the stated amount of solvent and emulsifier, and the concentrate is diluted with emulsifier-containing water to the desired concentration Ammonium salt and/or penetration enhancer in a dosage of 1000 ppm are added to the desired concentration if necessary.
Cabbage leaves (Brassica oleracea) are treated by being sprayed with the preparation of the active compound of the desired concentration and are infested with larvae of the diamondback moth (Plutella xylostella).
After the specified period of time, the mortality in % is determined. 100% means all the caterpillars have been killed; 0% means none of the caterpillars have been killed. The mortality values determined thus are recalculated using the Colby-formula (see sheet 1).

[3] = tested on: mustard beetle larvae (Phaedon cochleariae); test: Phaedon cochleariae - spray test, Example B-1 (Chinese cabbage leaf-disks); conditions: mortality
Procedure: as §1
Chinese cabbage (Brassica pekinensis) leaf-disks are sprayed with a preparation of the active ingredient of the desired concentration. Once dry, the leaf disks are infested with mustard beetle larvae (Phaedon cochleariae).
After the specified period of time, mortality in % is determined. 100% means all beetle larvae have been killed and 0% means none of the beetle larvae have been killed. The mortality values determined thus are recalculated using the Colby-formula (see sheet 1).

[4] = tested on: green peach aphid (Myzus persicae); test: Myzus persicae - spray test, Example C-1 (Chinese cabbage leaf-disks); conditions: mortality
Procedure: To produce a suitable preparation of active compound, 1 part by weight of active compound is mixed with the stated amount of solvent and emulsifier, and the concentrate is diluted with emulsifier-containing water to the desired concentration.
Chinese cabbage (Brassica pekinensis) leaf-disks infected with all instars of the green peach aphid (Myzus persicae) are sprayed with a preparation of the active ingredient of the desired concentration.
After the specified period of time, mortality in % is determined 100% means all aphids have been killed; 0% means none of the aphids have been killed. The mortality values determined thus are recalculated using the Colby-formula (see sheet 1).

[5] = tested on: mustard beetle larvae (Phaedon cochleariae); test: Phaedon cochleariae - spray test, Example B-2 (cabbage leaves); conditions: mortality
Procedure: (§2) Solvent: 7 parts by weight of dimethylformamide
Emulsifier: alkylaryl polyglycol ether
(§3) To produce a suitable preparation of active compound, 1 part by weight of active compound is mixed with the stated amount of solvent and is diluted with water, containing an emulgator concentration of 1000 ppm, to the desired concentration. Further test concentrations are prepared by dilution with emulsifier containing water Ammonium salt and/or penetration enhancer in a dosage of 1000 ppm are added to the desired concentration if necessary.
Cabbage leaves (Brassica oleracea) are treated by being sprayed with the preparation of the active compound of the desired concentration and are infested with mustard beetle larvae (Phaedon cochleariae).
After the specified period of time mortality in % is determined. 100% means all the beetle larvae have been killed and 0% means none of the beetle larvae have been killed. The mortality values determined thus are recalculated using the Colby-formula (see sheet 1).

[6] = tested on: fall armyworm larvae (Spodoptera frugiperda); test: Spodoptera frugiperda - spray test (maize leaf sections); conditions: mortality
Procedure: as §1, with “preparation of the active compound,” for “preparation of active compound,”
Maize (Zea mais) leaf sections are sprayed with a preparation of the active ingredient of the desired concentration. Once dry, the leaf sections are infested with fall armyworm larvae (Spodoptera frugiperda).
After the specified period of time, mortality in % is determined. 100% means all caterpillars have been killed and 0% means none of the caterpillars have been killed. The mortality values determined thus are recalculated using the Colby-formula (see sheet 1).

[7] = tested on: green peach aphid (Myzus persicae); test: Myzus persicae - spray test, Example C-2 (cabbage leaves); conditions: mortality, 0.5 ppm
Procedure: as §2
Emulsifier: alkylaryl polyglycolether
as §3
Cabbage leaves (Brassica oleracea) which are heavily infested by the green peach aphid (Myzus persicae) are treated by being sprayed with the preparation of the active compound of the desired concentration.
After the specified period of time, mortality in % is determined 100% means all the aphids have been killed; 0% means none of the aphids have been killed. The mortality values determined thus are recalculated using the Colby-formula (see sheet 1).

CC1(C)[C@H](C(=O)O[C@H](C#N)c2cccc(Oc3ccccc3)c2)[C@@H]1/C=C(\Cl)C(F)(F)F (racemic) [Lambda-Cyhalothrin, lambda-Cyhalothrin]
Efficacy in % after 6d [1]: 0% | Efficacy in % after 3d ([2]; 1 ppm): 0% | Efficacy in % after 6d ([3]; 0.25 g ai/ha): 0% | Efficacy in % after 6d ([4]; 0.125 g ai/ha): 0%

CC1(C)C(C=C(Cl)Cl)C1C(=O)OC(C#N)c1ccc(F)c(Oc2ccccc2)c1 (stereo not drawn) [Beta-Cyfluthrin (II-11), beta-Cyfluthrin]
Efficacy in % after 3d ([5]; 1.2 ppm): 0% | Efficacy in % after 6d ([6]; 0.032 g ai/ha): 0% | Efficacy in % after 6d [7]: 50%

CC1(C)[C@H](C(=O)O[C@H](C#N)c2cccc(Oc3ccccc3)c2)[C@@H]1C=C(Br)Br [Deltamethrin]
Efficacy in % after 6d ([6]; 0.25 g ai/ha): 0% | Efficacy in % after 6d ([4]; 0.15 g ai/ha): 0%

Cc1cc(C(F)(C(F)(F)F)C(F)(F)F)ccc1NC(=O)c1cccc(Cl)c1C(=O)NC(C)(C)C#N [(I-5)]
Efficacy in % after 3d ([5]; 1.2 ppm): 0% | Efficacy in % after 3d ([5]; 4.8 ppm): 50% | Efficacy in % after 6d ([6]; 0.8 g ai/ha): 33% | Efficacy in % after 3d ([2]; 0.25 ppm): 0% | Efficacy in % after 6d ([3]; 2.5 g ai/ha): 0% | Efficacy in % after 6d ([3]; 12 g ai/ha): 0% | Efficacy in % after 6d ([4]; 1.25 g ai/ha): 0% | Efficacy in % after 6d ([4]; 1.5 g ai/ha): 0% | Efficacy in % after 6d ([4]; 15 g ai/ha): 0%
